Laboratory results as given in EP0584223B1, “NOVEL IMMUNOSUPPRESSIVE COMPOUNDS” (VERTEX PHARMACEUTICALS INCORPORATED, priority 1991, dated 1992).
Like-named read-outs stand apart in the source and are kept apart here.

Columns and labels:
FKBP = FKBP (Homo sapiens, UniProt P62942); assay: Inhibition of FKBP PPIase (rotamase) activity, chymotrypsin-coupled assay; type: biochemical; settings: apparent Ki
From the text: The inhibition of the PPIase (rotamase) enzyme activity of the FKBP (apparent "Ki" values) can also be measured according to the methods described by either Harding, M.W. et al., Nature 341:758-760 (1989) or Siekierka, J.J. et al., Nature 341:755-757 (1989). The cis-trans isomerization of the […] peptide bond in a model substrate, N-succinyl-Ala-Ala-Pro-Phe-p-nitroanilide, is monitored spectrophotometrically in a coupled assay with chymotrypsin, which releases 4-nitroanilide from the trans form of the substrate. Fischer, G. et al., Nature 337:476-478 (1989). The inhibitory effect of the addition of different concentrations of inhibitor on the extent of the reaction is determined, and analysis of the change in first order rate constant as a function of inhibitor concentration yields an estimate of the apparent Ki value.

FK-506 binding protein = FK-506 binding protein (Homo sapiens, UniProt P62942); assay: Competitive binding assay with [3H]dihydro-FK-506; settings: binding to FKBP; apparent Kd, competition with [3H]dihydro-FK-506
Sequence of FK-506 binding protein (P62942 whole entry): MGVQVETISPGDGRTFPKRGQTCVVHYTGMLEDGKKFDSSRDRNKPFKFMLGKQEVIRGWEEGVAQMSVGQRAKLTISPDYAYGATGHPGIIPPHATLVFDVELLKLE

[1] = test system: human peripheral blood lymphocytes (PBC); assay: Mitogenesis assay, PMA plus ionomycin stimulated proliferation; type: cell-based; settings: Lymphocyte, read-out: PMA
From the text: (§4) Fresh peripheral blood lymphocytes (PBLs) from LeukoPak cells or whole blood from random normal blood donors (tested HIV-negative and hepatitis negative) are isolated and separated by density centrifugation over Histopaque 1077 (Sigma Chemical Co., St. Louis, MO). […] The human allogeneic B cell lines used for activation of the fresh PBLs are EBV-transformed lymphocytes from normal healthy adult donors with two completely different HLA haplotypes. All cell lines were routinely tested for the presence of Mycoplasma contamination using the Gibco Mycotect test kit and are Mycoplasma-free. Culture medium consists of RPMI 1640 (Gibco, Grand Island, NY) containing penicillin (50 U/ml) and streptomycin (50 µg/ml), L-glutamine 2 mM, 2 mercaptoethanol (5 x 10^-5), 10% heat-inactivated FCS and 10 mM HEPES.

[2] = test system: human peripheral blood lymphocytes (PBC); assay: Mitogenesis assay, OKT3 stimulated proliferation; type: cell-based; settings: Lymphocyte, read-out: OKT3
From the text: as §4

[3] = test system: PBLs stimulated with LB human viral-transformed B lymphoblastoid cell line; assay: MLR bioassay, PBLs stimulated with LB cells; type: cell-based; settings: read-out: LB
From the text: (§1) Fresh peripheral blood lymphocytes (PBLs) from LeukoPak cells or whole blood from random normal blood donors (tested HIV-negative and hepatitis negative) are isolated and separated by density centrifugation over Histopaque 1077 (Sigma Chemical Co., St. Louis, MO). The murine CTLL cytotoxic T cell line and the human Jurkat T cell line are from ATCC (CTLL-2 ATCC TIB214, JURKAT CLONE E6-1 ATCC TIBl52). The human allogeneic B cell lines used for activation of the fresh PBLs are EBV-transformed lymphocytes from normal healthy adult donors with two completely different HLA haplotypes. All cell lines were routinely tested for the presence of Mycoplasma contamination using the Gibco Mycotect test kit and are Mycoplasma-free. Culture medium consists of RPMI 1640 (Gibco, Grand Island, NY) containing penicillin (50 U/ml) and streptomycin (50 µg/ml), L-glutamine 2 mM, 2 mercaptoethanol (5 x 10^-5), 10% heat-inactivated FCS and 10 mM HEPES.
(§2) All chemical stocks were dissolved in DMSO.
(§3) Antigen activated proliferation of PBLs in a primary mixed lymphocyte reaction was assessed in the presence or absence of different concentrations of tested compounds and control drugs. 5 x 10^4 fresh PBLs were stimulated with 5 x 10^3 of Mitomycin C treated-allogeneic EBV-transformed […] cells, LB and JVM, in a final volume of 200 µl per well in 96-well round-bottomed plates (Mishell, B.B. and S.M. Shiigi, Selected Methods in Cellular Immunology W.H. Freeman and Co., San Francisco, CA (1980); Nelson, P.A. et al., Transplantation 50:286 (1990)). Cultures were pulsed on day 6, harvested 24 h later and counted as in previous section.

[4] = test system: PBLs stimulated with JVM human viral-transformed B lymphoblastoid cell line; assay: MLR bioassay, PBLs stimulated with JVM cells; type: cell-based; settings: read-out: JVM
From the text: as §1, §2, §3

[5] = test system: CTLL-20 murine T cell line; assay: IL-2 microassay, IL-2 dependent CTLL proliferation; type: cell-based; settings: Mus musculus, read-out: CTLL
From the text: as §4

[6] = Bioavailability in rats, blood levels by HPLC; type: in vivo; settings: rat, 50 mg/kg single dose, whole blood
Procedure: Bioavailability of compound (20) was determined in rats. A single dose of 50 mg/kg was administered by oral gavage or intraperitoneal (IP) injection in a vehicle consisting of olive oil-10% ethanol. Thereafter, animals were sacrificed at 0.5, 1, 2, 4, 8 and 12 hr, blood was collected into sodium heparin and immediately frozen. Whole blood was extracted with acetonitrile-methanol (90/10 vol:vol) and the concentration of compound per ml of blood was determined by HPLC. […] After oral administration, blood levels of 0.5µM, 1µM, 2µM, 12µM, and 3µM were measured at .05h, 1h, 2h, 4h, and 8h, respectively.

[7] = Bioavailability in rats, blood levels by HPLC; type: in vivo; settings: rat, oral gavage, 50 mg/kg single dose, .05h, whole blood
[8] = test system: fresh human peripheral blood lymphocytes; assay: Table 3 assay 1: human PBL + OKT3 proliferation; type: cell-based; settings: Lymphocyte, OKT3 antibody (anti-CD3) stimulation, (3H)TdR incorporation, estimated
[9] = test system: T-cell clone stimulated with antibody to the T-cell receptor (TCR) and antibody to CD2; assay: Table 3 assay 2: T-cell hybridoma + TCR/CD2 proliferation; type: cell-based; settings: (3H)TdR incorporation, estimated
CTLL cells = assay: Table 3 assay 4: CTLL proliferation + IL-2; type: cell-based; settings: Mus musculus, exogenous IL-2, (3H)TdR incorporation
T-cell hybridoma = assay: Table 3 assay 3: apoptosis, activation-induced (anti-CD3) cell death; type: cell-based; settings: at 1µg/ml; inhibition of activation-induced cell death, viable cell count
[10] = OKT3 (10^-4 dilution final), inhibition of proliferation, 3H-thymidine
[11] = mixed lymphocyte reaction, LB stimulator cells, inhibition of proliferation
[12] = mixed lymphocyte reaction, JVM stimulator cells, inhibition of proliferation
[13] = inhibition of proliferation of cytotoxic T cells stimulated by IL-2

Sequence of FKBP (P62942 whole entry): as above

| Structure (SMILES) | Ki (FKBP) | Kd (FK-506 binding protein) | IC50 ([1]; 3 h) | IC50 [2, 10] | IC50 [3, 11] | IC50 [4, 12] | IC50 [5, 13] | also measured |
| --- | --- | --- | --- | --- | --- | --- | --- | --- |
| COc1cc(C(=O)C(=O)N2CCCC[C@H]2C(=O)OC(CCCc2ccccc2)/C(C)=C/[C@H]2CC[C@H](O)CC2)cc(OC)c1OC (mixture of isomers) [Compound 8, (R and S)-(E)-1-[trans-(4-Hydroxycyclohexyl)]-2-methyl-6-phenyl-3-hex-1-enyl (S)-N-(3,4,5-trimethoxyphenylglyoxyl)pipecolate] | 27 nM | 30 nM | 4000 nM | 5000 nM | 10000 nM | 10000 nM | 4000 nM |  |
| COc1cc(C(=O)C(=O)N2CCCC[C@H]2C(=O)OC(CCCc2ccccc2)c2ccccc2)cc(OC)c1OC (stereo partly drawn) [Compound 6] | 80 nM | 40 nM | 8000 nM | 8000 nM | 10000 nM | 9000 nM | 5000 nM |  |
| COc1ccc(CCC(CCCc2ccccc2)OC(=O)[C@@H]2CCCCN2C(=O)C(=O)c2cc(OC)c(OC)c(OC)c2)cc1 (stereo partly drawn) [Compound 13] | 4 nM | 27 nM | 8000 nM | 10000 nM | > 10000 nM | > 10000 nM | 9000 nM |  |
| COc1ccc(CCCC(CCCc2ccccc2)OC(=O)[C@@H]2CCCCN2C(=O)C(=O)c2cc(OC)c(OC)c(OC)c2)cc1 (stereo partly drawn) [Compound 17] | 3 nM | 68 nM |  |  |  |  |  | IC50 [1]: 4500 nM; IC50 [2]: 2500 nM; IC50 [3]: 5500 nM; IC50 [4]: 7000 nM; IC50 ([5]; CTLL): > 10000 nM |
| COc1cc(C(=O)C(=O)N2CCCC[C@H]2C(=O)OC(CCCc2ccccc2)CCCc2ccccn2)cc(OC)c1OC (stereo partly drawn) [Compound 20] | 1 nM | 4 nM | 1700 nM | 2000 nM | 2000 nM | 2500 nM | 2000 nM | concentration at 0.5 h ([6]; IP, 0.5h): 700 nM; concentration at 1 h ([6]; IP): 22000 nM; concentration at 2 h ([6]; IP): 225000 nM; concentration at 4 h ([6]; IP): 45000 nM; concentration at 8 h ([6]; IP): 1000 nM; concentration at 1 h ([6]; oral gavage): 1000 nM; concentration at 2 h ([6]; oral gavage): 2000 nM; concentration at 4 h ([6]; oral gavage): 12000 nM; concentration at 8 h ([6]; oral gavage): 3000 nM; concentration at 0.05 h [7]: 500 nM |
| COc1cc(C(=O)C(=O)N2CCCC[C@H]2C(=O)OC(CCCc2ccccc2)CCCc2ccc(CO)cc2)cc(OC)c1OC (stereo partly drawn) [Compound 26] | 4 nM | 19 nM | 3000 nM | 1000 nM | 3000 nM | 2500 nM | 4000 nM |  |
| CC(C)Oc1cccc(C(=O)C(=O)N2CCCC[C@H]2C(=O)OC(CCCc2ccccc2)CCCc2cccnc2)c1 (stereo partly drawn) [Compound 29] | 2 nM | 3 nM | 10000 nM | 8000 nM | > 10000 nM | > 10000 nM | 4000 nM |  |
| COc1cc(C(=O)C(=O)N2CCCC[C@H]2C(=O)OC(CCCc2ccccc2)CCCc2cccc(CO)c2)cc(OC)c1OC (stereo partly drawn) [Compound 35] | 1 nM | 40 nM | 2700 nM | 6500 nM | 2500 nM | 3000 nM | 2500 nM |  |
| COc1cc(C(=O)C(=O)N2CCCC[C@H]2C(=O)OC(CCCc2ccccc2)CCCc2cccc(C(=O)O)c2)cc(OC)c1OC (stereo partly drawn) [Compound 36] | 4 nM | 20 nM | > 10000 nM | > 10000 nM | > 10000 nM | 9000 nM | > 10000 nM |  |
| COc1cc(C(=O)C(=O)N2CCCC[C@H]2C(=O)OC(CCCc2ccccc2)c2cccc(CO)c2)cc(OC)c1OC (stereo partly drawn) [Compound 37] | 7 nM | 140 nM | 2000 nM | 5000 nM | 1200 nM | 2200 nM | 1200 nM |  |
| C=CC[C@@H]1/C=C(\C)C[C@H](C)C[C@H](OC)[C@H]2O[C@@](O)(C(=O)C(=O)N3CCCC[C@H]3C(=O)O[C@H](/C(C)=C/[C@@H]3CC[C@@H](O)[C@H](OC)C3)[C@H](C)[C@@H](O)CC1=O)[C@H](C)C[C@@H]2OC [FK-506] |  |  |  |  |  |  |  | IC50 [8]: < 1 µg/mL; IC50 [9]: < 1 µg/mL; IC50 (CTLL cells): > 1 µg/mL |
| CO[C@H]1C[C@@H]2CC[C@@H](C)[C@@](O)(O2)C(=O)C(=O)N2CCCC[C@H]2C(=O)O[C@H]([C@H](C)C[C@@H]2CC[C@@H](O)[C@H](OC)C2)CC(=O)[C@H](C)/C=C(\C)[C@@H](O)[C@@H](OC)C(=O)[C@H](C)C[C@H](C)/C=C/C=C/C=C/1C [Rapamycin] |  |  |  |  |  |  |  | IC50 [8]: < 1 µg/mL; IC50 [9]: < 1 µg/mL; Apoptosis (T-cell hybridoma): Inactive at 1µg/ml; IC50 (CTLL cells): ~0.01 µg/mL |
